“Also recorded” adds a separate entry of the source.
Assays:
[1] = system: enterobacteria present in the colon; conditions: oral treatment; azithromycin daily dose of 500 mg; cited from earlier work
erythrocyte = conditions: MIC for many bacteria; cited from earlier work
[2] = BioDis (USP III) release test in simulated human gastrointestinal fluids; type: physicochemical; conditions: Biodiss system; successively soaked in simulated gastric, proximal jejunum, late jejunum, ileum and colon fluids (FIG. 2)
Protocol: In a particular embodiment, the intermediate coating is selected in order to achieve a delayed and/or controlled release of the antibacterial, as measured by in vitro testing such as BioDis dissolution tester (USP III release apparatus). In this system, the dosage form is successively placed into glass tubes (filled with approx 200 mL of dissolution media) corresponding to the different sections of the gastrointestinal tract, such as described by Fotaki and Coll, in European Journal of Pharmaceutics and Biopharmaceutics 73 (2009) 115-120. This allows a good simulation of in vivo release before testing into mammals. pH, fed state and various other physiological conditions can be tested. Using the BioDis system, it is possible for those skilled in the art to finely tune the formulation to achieve a desired pre-determined delayed release. It will be understood that this method is also useful for testing any kind of drug delivery system intended to deliver the antimicrobial(s) in a desired part of the intestine.
Legend: FIG. 1: Release of azithromycine in simulated human gastrointestinal tract using a Biodis system. The azithromycin cellet formulation, coated with 35% FS30D (Batch GL-058B4), is successively soaked into simulated fluids such as gastric, proximal jejunum, late jejunum, Ileum and colon. […]

Row | Compound | elimination of enterobacteria from the colon [1] | further results
1 | CC[C@H]1OC(=O)[C@H](C)[C@@H](O[C@H]2C[C@@](C)(OC)[C@@H](O)[C@H](C)O2)[C@H](C)[C@@H](O[C@@H]2O[C@H](C)C[C@H](N(C)C)[C@H]2O)[C@](C)(O)C[C@@H](C)C(=O)[C@H](C)[C@@H](O)[C@]1(C)O [erythromycin] | eliminated from the lumen | 
2 | gramicidin S |  | concentration causing erythrocyte lysis relative to the MIC (erythrocyte): threefold higher than the MIC
3 | CC[C@H]1OC(=O)[C@H](C)[C@@H](O[C@H]2C[C@@](C)(OC)[C@@H](O)[C@H](C)O2)[C@H](C)[C@@H](O[C@@H]2O[C@H](C)C[C@H](N(C)C)[C@H]2O)[C@](C)(O)C[C@@H](C)CN(C)[C@H](C)[C@@H](O)[C@]1(C)O [Azithromycin] | effective to eliminate Gram-negative enterobacteria from the colon | 
4 | colistin |  | Release of colistin in simulated human gastrointestinal tract [2]: improves the release of colistin; also recorded: prevent from total colistin release
